The text below walks through data of ChEMBL document CHEMBL1250451, “Mechanistic insights into a Ca2+-dependent family of alpha-mannosidases in a human gut symbiont” (Nat Chem Biol, 2010).

What all share (format): protein assay
The target in experiment [1] is T1, Alpha-1,2-mannosidase (BT_3994) (Bacteroides thetaiotaomicron) (UniProt Q8A0M7).
T1 sequence (whole entry): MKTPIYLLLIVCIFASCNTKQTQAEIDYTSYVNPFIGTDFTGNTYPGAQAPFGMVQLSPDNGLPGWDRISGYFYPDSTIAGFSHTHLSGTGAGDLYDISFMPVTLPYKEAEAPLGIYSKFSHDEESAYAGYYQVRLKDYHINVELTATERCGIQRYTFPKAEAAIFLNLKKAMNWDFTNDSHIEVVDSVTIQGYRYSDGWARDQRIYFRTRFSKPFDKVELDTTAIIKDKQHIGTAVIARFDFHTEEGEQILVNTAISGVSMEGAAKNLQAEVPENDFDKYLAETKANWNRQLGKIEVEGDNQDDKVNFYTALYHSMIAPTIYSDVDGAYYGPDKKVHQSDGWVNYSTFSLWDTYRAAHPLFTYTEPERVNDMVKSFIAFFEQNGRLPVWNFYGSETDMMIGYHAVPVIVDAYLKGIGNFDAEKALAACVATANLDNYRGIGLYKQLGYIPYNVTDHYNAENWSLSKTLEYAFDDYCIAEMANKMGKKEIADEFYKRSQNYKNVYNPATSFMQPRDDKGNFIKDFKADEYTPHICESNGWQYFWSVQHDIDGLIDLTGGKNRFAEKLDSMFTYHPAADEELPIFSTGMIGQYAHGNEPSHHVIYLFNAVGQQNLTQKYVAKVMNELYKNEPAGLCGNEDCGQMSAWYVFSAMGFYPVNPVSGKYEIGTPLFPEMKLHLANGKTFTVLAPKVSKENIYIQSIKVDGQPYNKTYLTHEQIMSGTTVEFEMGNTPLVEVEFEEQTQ
The experiment can be described thus: Activity of Bacteroides thetaiotaomicron GH92 alpha-mannosidase GH92 alpha-mannosidase 3994 assessed as mannose release at 1 mM after 16 hrs by HPLC relative to untreated control after 16 hrs by HPLC.

For experiment [2], the target named is T2, Alpha-1,2-mannosidase (BT_2948) (Bacteroides thetaiotaomicron) (UniProt Q8A3K6).
T2 sequence (whole entry): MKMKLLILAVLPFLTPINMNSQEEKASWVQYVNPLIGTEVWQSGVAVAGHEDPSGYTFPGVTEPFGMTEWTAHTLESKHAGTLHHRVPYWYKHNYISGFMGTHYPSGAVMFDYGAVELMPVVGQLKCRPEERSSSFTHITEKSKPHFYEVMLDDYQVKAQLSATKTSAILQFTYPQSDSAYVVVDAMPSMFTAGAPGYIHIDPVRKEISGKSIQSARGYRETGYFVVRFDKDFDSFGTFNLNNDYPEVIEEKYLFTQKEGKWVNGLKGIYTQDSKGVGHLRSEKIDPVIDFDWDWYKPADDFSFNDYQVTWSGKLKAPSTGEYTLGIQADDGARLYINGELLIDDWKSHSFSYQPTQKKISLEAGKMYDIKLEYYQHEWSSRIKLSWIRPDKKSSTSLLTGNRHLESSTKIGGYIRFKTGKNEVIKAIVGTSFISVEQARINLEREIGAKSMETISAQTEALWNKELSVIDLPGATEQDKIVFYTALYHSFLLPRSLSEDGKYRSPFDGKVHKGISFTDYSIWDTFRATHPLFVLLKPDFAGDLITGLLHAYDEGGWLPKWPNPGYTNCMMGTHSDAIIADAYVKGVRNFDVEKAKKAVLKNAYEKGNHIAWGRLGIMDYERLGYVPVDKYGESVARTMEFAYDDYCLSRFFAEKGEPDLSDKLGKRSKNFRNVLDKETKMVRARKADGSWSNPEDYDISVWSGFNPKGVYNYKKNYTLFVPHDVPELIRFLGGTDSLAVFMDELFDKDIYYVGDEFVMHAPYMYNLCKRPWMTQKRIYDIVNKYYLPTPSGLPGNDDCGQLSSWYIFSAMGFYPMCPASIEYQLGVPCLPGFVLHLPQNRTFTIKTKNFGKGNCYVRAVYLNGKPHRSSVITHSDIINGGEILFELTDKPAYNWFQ
The experiment can be described thus: Activity of Bacteroides thetaiotaomicron GH92 alpha-mannosidase GH92 alpha-mannosidase 2948 assessed as mannose release at 1 mM after 16 hrs by HPLC relative to untreated control after 16 hrs by HPLC.

Experiment [3] addresses T3, Alpha-1,2-mannosidase (BT_3530) (Bacteroides thetaiotaomicron) (UniProt Q8A1X8).
T3 sequence (whole entry): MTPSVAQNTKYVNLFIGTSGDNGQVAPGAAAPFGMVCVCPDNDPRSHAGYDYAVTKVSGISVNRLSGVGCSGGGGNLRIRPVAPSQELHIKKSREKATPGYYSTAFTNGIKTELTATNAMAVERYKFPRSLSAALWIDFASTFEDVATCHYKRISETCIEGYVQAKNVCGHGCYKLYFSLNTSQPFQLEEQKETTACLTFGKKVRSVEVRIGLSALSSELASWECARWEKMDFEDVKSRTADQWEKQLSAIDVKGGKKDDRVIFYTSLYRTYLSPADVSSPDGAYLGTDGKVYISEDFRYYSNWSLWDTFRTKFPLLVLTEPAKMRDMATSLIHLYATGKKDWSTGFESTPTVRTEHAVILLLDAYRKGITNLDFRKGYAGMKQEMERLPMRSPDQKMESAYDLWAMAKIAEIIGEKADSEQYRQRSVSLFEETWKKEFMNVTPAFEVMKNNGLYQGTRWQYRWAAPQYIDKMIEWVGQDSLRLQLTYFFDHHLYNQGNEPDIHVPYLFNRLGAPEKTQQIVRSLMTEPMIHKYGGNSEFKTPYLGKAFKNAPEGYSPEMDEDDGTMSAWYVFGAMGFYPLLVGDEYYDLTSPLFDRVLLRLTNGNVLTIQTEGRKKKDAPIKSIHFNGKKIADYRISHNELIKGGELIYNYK
The experiment can be described thus: Activity of Bacteroides thetaiotaomicron GH92 alpha-mannosidase GH92 alpha-mannosidase 3530 assessed as mannose release at 1 mM after 16 hrs by HPLC relative to untreated control after 16 hrs by HPLC.

Each structure is given as a SMILES string. Calls of active or inactive are those of the source. No cut-off for these calls is given here.

`OC[C@H]1O[C@H](O[C@H]2[C@@H](O)[C@H](O)[C@@H](CO)O[C@@H]2O)[C@@H](O)[C@@H](O)[C@@H]1O`: the outcome in experiment [1], in experiment [2] and in experiment [3] was inactive.

As to `OC[C@H]1O[C@H](O[C@H]2[C@H](O)[C@H](O)[C@@H](O)O[C@@H]2CO)[C@@H](O)[C@@H](O)[C@@H]1O`, the Activity in experiment [1] is 20%; in experiment [3] it was 100%. The outcome in experiment [2] was inactive.

In the case of `OC[C@H]1O[C@H](OC[C@H]2O[C@H](O)[C@@H](O)[C@@H](O)[C@@H]2O)[C@@H](O)[C@@H](O)[C@@H]1O`, the result in experiment [1], in experiment [2] and in experiment [3] was inactive.

Take `OC[C@H]1O[C@H](O[C@@H]2[C@H](O)[C@@H](O)O[C@H](CO)[C@H]2O)[C@@H](O)[C@@H](O)[C@@H]1O`: the result in experiment [2] was inactive. Besides, the Activity in experiment [3] amounted to 58%.
